Assay results reported in patent US20260335344A1, “NOVEL FORMULATIONS AND USES” (DANSTAR FERMENT AG, priority 2022, published 2026).
“Also recorded” adds a separate entry of the source.

Key:
intestinal sucrase = conditions: role: inhibitor; substrate sucrose; dietary supplement use; cited from earlier work
[1] = tested on: bacterial pool mimicking the skin microbiota; experiment: Relative quantity of bacteria in the skin microbiota mix by metagenomic sequencing; type: cell-based; conditions: 6 hours
From the text: (§1) The objective of the experiments is to evaluate the effect of L-arabinose at different concentrations on a bacterial pool mimicking the skin microbiota by quantification of the bacterial mix using metagenomic sequencing. Five different types of bacteria are obtained from ATCC®: Micrococcus luteus (Cat. No. 4698), Corynebacterium striatum (Cat. No. BAA-1293), Staphylococcus epidermidis (Cat. No. 12228), Acinetobacter baumannii (Cat. No. 19606) and Streptococcus mitis (Cat. No. NCIMB-13770). The bacteria are common skin bacteria, selected to roughly mimic the skin microbiota. The bacteria are grown on specific media, either solid media (Brain Heart Infusion (BHI) Agar from Condalab (Cat. No. 1048.00) or Trypticase Soy (TS) Agar from Condalab (Cat. No. 1068.00)) or on liquid media (either Brain Heart Infusion Broth from Condalab (Cat. No. 1400.00) or Trypticase Soy Broth from Condalab (Cat. No. 1224.00)). The bacteria culture is performed according to the ATCC instructions and adapted to the specific conditions of each bacterium: all bacteria are grown in BHI medium at 37° C. in an aerobic environment shaking at 120 rpm, except for Streptococcus mitis which requires an anaerobic environment, so without shaking and with paraffin oil from Sigma-Aldrich (Cat. No. 185812) above the medium to cut off contact with air.
(§2) Growth kinetics are carried out for each bacterium to determine their different growth phases and in particular the time needed to reach the exponential phase. Aerobically growing bacteria are plated on solid medium and then a colony is inoculated into 10 mL of liquid medium. An OD at 600 nm is then taken at regular time intervals from T0, the inoculation time, to obtain a growth curve until reaching the stationary phase. Anaerobically growing bacteria are directly inoculated at 500 μL into 9.5 mL of medium.
(§3) Bacteria are treated during 6 hours with L-arabinose, diluted in culture medium. L-Arabinose is first resuspended in culture medium at a concentration of 5%. The following dilutions are directly realized in culture medium at the following concentrations: 3.5%, 2%, 1% and 0.5%.
(§4) Each bacterium from the mix is initially grown independently. Once the exponential phase starts, Corynebacterium striatum, Micrococcus luteus and Staphylococcus epidermidis are mixed and grown in the presence or not of the L-arabinose at different concentrations for 6 hours, before reaching the stationary phase. Acinetobacter baumannii and Streptococcus mitis are grown independently with the L-arabinose due to their specific nature (Biosafety Level 2 (BSL-2) bacteria and anaerobic growth for Streptococcus mitis) and pulled in the final mix. Then, the mix is centrifugated and sent to sequencing. Bacterial DNA is isolated, sequenced, and 16S rRNA sequences are matched to taxonomic databases.
FIG. 6 depicts the relative quantity of bacteria in the skin microbiota mix at different concentrations of L-arabinose. Relative bacteria abundance is detected in all samples after metagenomic sequencing. The bacteria seeded in the mix are Micrococcus luteus, Corynebacterium striatum, Staphylococcus epidermidis, Acinetobacter baumannii and Streptococcus mitis. Bacteria are treated with L-arabinose at 5 concentrations: 0.5%, 1%, 2%, 3.5% and 5%. All the OTUs detected are sorted by genera to be able to differentiate all the bacteria present in every sample.

[2] = tested on: Staphylococcus epidermidis; experiment: Relative quantity of Staphylococcus epidermidis by metagenomic (16S rRNA) sequencing after L-arabinose treatment; type: cell-based; conditions: 6 hours, vs control
From the text: as §1, with “The bacteria culture is performed according to the ATCC instructions and adapted to the specific conditions of each bacterium: all bacteria are grown in BHI medium at 37° C. in an aerobic environment shaking at 120 rpm, except for Streptococcus mitis which requires an anaerobic environment, so without shaking and with paraffin oil from Sigma-Aldrich (Cat. No. 185812) above the medium to cut off contact with air.” left out
FIG. 4 depicts the relative quantity of Staphylococcus epidermidis at different concentrations of L-arabinose. […]

Streptococcus mitis = experiment: Relative quantity of Streptococcus mitis by metagenomic (16S rRNA) sequencing after L-arabinose treatment; type: cell-based; conditions: for relative quantity of Streptococcus mitis / increase of relative quantity of Streptococcus mitis: vs control; for increase of relative quantity of Streptococcus mitis: statistically increases
From the text: as §1, §2, §3, §4
(§5) The statistical analysis for FIGS. 2-5 is performed using two-tailed unpaired T-test vs NT-NS (*p-value<0.05, **p-value<0.01, ***p-value<0.001).
FIG. 5 depicts the relative quantity of Streptococcus mitis at different concentrations of L-arabinose. Relative Streptococcus mitis abundance is compared in all samples after metagenomic sequencing. Bacteria are treated with L-arabinose at 5 concentrations: 0.5%, 1%, 2%, 3.5% and 5%. Only the OTU identifying the Streptococcus mitis genera is represented.

Acinetobacter baumannii = experiment: Relative quantity of Acinetobacter baumannii by metagenomic (16S rRNA) sequencing after L-arabinose treatment; type: cell-based
From the text: as §1, §2, §3, §4
FIG. 2 depicts the relative quantity of Acinetobacter baumannii at different concentrations of L-arabinose. Relative Acinetobacter baumannii abundance is compared in all samples after metagenomic sequencing. Bacteria are treated with L-arabinose at 5 concentrations: 0.5%, 1%, 2%, 3.5% and 5%. Only the OTU identifying the Acinetobacter baumannii genera is represented.
as §5

Micrococcus luteus = experiment: Relative quantity of Micrococcus luteus by metagenomic (16S rRNA) sequencing after L-arabinose treatment; type: cell-based; conditions: 6 hours, vs control
From the text: as §1, §2, §3, §4, §5
FIG. 3 depicts the relative quantity of Micrococcus luteus at different concentrations of L-arabinose. Relative Micrococcus luteus abundance is compared in all samples after metagenomic sequencing. Bacteria are treated with L-arabinose at 5 concentrations: 0.5%, 1%, 2%, 3.5% and 5%. Only the OTU identifying the Micrococcus luteus genera is represented.

[3] = 0.5% to 5% L-arabinose, 6 hours

In the case of `O=C[C@H](O)[C@@H](O)[C@@H](O)CO` [L-arabinose], the “inhibition of sucrose absorption by inhibiting intestinal sucrase” value (intestinal sucrase) is given as “ability to inhibit absorption of sucrose”, the “relative quantity of bacteria in the skin microbiota mix” value (from here on “relative quantity of bacteria”) ([1]; 0.5% L-arabinose) is given as “Acinetobacter baumannii is outgrowing the other bacteria” and the “homeostasis of the skin microbiota” value ([1]; 1% L-arabinose) is given as “maintaining the homeostasis of skin microbiota; also recorded: safekeeping the homeostasis of the skin microbiota”. The “difference of the bacterial mix compared to the NT-NS control” value ([1]; 1% or 2% L-arabinose, vs NT-NS control) was “no significant difference”, the “homeostasis of the skin microbiota” value ([1]; 2% L-arabinose) was “maintaining the homeostasis of skin microbiota; also recorded: safekeeping the homeostasis of the skin microbiota” and the “relative quantity of bacteria” value ([1]; 3.5% L-arabinose) was “Streptococcus mitis is fast growing at the expense of Acinetobacter baumannii”. The “relative quantity of bacteria” value ([1]; 5% L-arabinose) was “Streptococcus mitis is fast growing at the expense of Acinetobacter baumannii”, the “relative quantity of Staphylococcus epidermidis” value ([2]; 0.5% L-arabinose) was “tendency to decrease” and the “relative quantity of Staphylococcus epidermidis” value ([2]; other concentrations (1%, 2%, 3.5%, 5%) of L-arabinose) was “no statistical differences”. The “relative quantity of Streptococcus mitis” value (Streptococcus mitis; 0.5% L-arabinose, 6 hours) was “tends to decrease”, the “effect on Streptococcus mitis (dose dependence)” value (Streptococcus mitis; [3]) was “dose-dependent effect” and the “relative quantity of Streptococcus mitis” value (Streptococcus mitis; 1% L-arabinose, 6 hours) was “tends to decrease”. The “relative quantity of Streptococcus mitis” value (Streptococcus mitis; 2% L-arabinose, 6 hours) was “the same than the control”, the “increase of relative quantity of Streptococcus mitis” value (Streptococcus mitis; 3.5% L-arabinose, 6 hours) was “more than 2 times” and the “increase of relative quantity of Streptococcus mitis” value (Streptococcus mitis; 5% L-arabinose, 6 hours) was “more than 2 times”. The “effect on Streptococcus mitis” value (Streptococcus mitis; higher concentrations of L-arabinose (3.5% and 5%)) was “promotes Streptococcus mitis”, the “effect on Acinetobacter baumannii” value (Acinetobacter baumannii; 0.5% L-arabinose) was “promotes Acinetobacter baumannii” and the “increase of relative quantity of Acinetobacter baumannii compared to the NT-NS control” value (Acinetobacter baumannii; 0.5% L-arabinose, 6 hours, vs NT-NS control) was 7%. For the same molecule, the “effect on Acinetobacter baumannii (dose dependence)” value (Acinetobacter baumannii; [3]) was “dose-dependent effect”, the “relative quantity of Acinetobacter baumannii” value (Acinetobacter baumannii; 1% L-arabinose, 6 hours, vs NT-NS control) was “the same than the control” and the “relative quantity of Acinetobacter baumannii” value (Acinetobacter baumannii; 2% L-arabinose, 6 hours, vs NT-NS control) was “the same than the control”. The “decrease of relative quantity of Acinetobacter baumannii compared to the NT-NS control” value (Acinetobacter baumannii; 5% L-arabinose, 6 hours, vs NT-NS control, statistically decreases) was “up to 7%”, the “relative quantity of Micrococcus luteus” value (Micrococcus luteus; 0.5% L-arabinose) was “inhibit Micrococcus luteus; also recorded: statistically decreases” and the “relative quantity of Micrococcus luteus” value (Micrococcus luteus; 1% L-arabinose) was “no statistically significant change”. For the same molecule, the “relative quantity of Micrococcus luteus” value (Micrococcus luteus; 2% L-arabinose) was “statistically significant increase”, the “relative quantity of Micrococcus luteus” value (Micrococcus luteus; 3.5% L-arabinose) was “no statistically significant change” and the “relative quantity of Micrococcus luteus” value (Micrococcus luteus; 5% L-arabinose) was “no statistically significant change”.
